Measurements reported in patent US6747050B1, “Isoxazoline derivative and a process for the preparation thereof” (LG Chem Investment Ltd., priority 1999, dated 2004).

Biological target: T1, caspase-1 (Homo sapiens, UniProt P29466)
T1 construct: made in house; host or cells: transformed bacterium (pET vector)
T1 sequence (P29466 120-297 limits assumed): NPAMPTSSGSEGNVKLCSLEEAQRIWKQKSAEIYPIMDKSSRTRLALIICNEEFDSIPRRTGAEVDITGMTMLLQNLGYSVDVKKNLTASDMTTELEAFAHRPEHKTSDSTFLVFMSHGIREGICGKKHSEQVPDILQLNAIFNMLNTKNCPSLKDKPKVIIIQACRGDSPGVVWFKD
T1 sequence (P29466 317-404 limits assumed): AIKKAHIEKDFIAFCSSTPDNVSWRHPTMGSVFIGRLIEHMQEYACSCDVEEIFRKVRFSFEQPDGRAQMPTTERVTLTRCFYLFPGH
Assay: Recombinant caspase enzyme inhibition, fluorogenic substrate Ac-YVAD-AMC
Format: biochemical
Conditions: Reversible Inhibitor
Experimental: In the present experiment recombinant caspases were purified from a transformed bacterium after human caspase genes were cloned into the expression vector pET, and then used in the experiment (Thornberry, N. A. et al. Nature, 1992, 356, 768. Thornberry, N. A. Methods in Enzymology, 1994, 615.).
Enzymatic activity was measured by a known procedure (Walker N. P. C. et al., Cell 1994, 78, 343). Briefly, 10 ng of recombinant protein was mixed with 50 mM Tris(pH 7.0), 1 mM DTT, 0.5 mM EDTA, 10% Glycerol buffer containing 1˜100 μM of enzyme substrate, Ac-YVAD-AMC or Ac-DEVD-AMC and then the changes by isolated AMC at 37° C. were recorded. The inhibitory activity for caspases was calculated from the early enzyme reaction rate by measuring the changes with fluorescence excited at […] and emitted at 460 nm (Range; Ki<100 nM).

Ki [µM] | Compound
0.53 | CC(C)[C@H](NC(=O)CCC(=O)O)C1=NOC(C)(C(=O)N[C@@H](CC(=O)O)C(=O)COc2ccc3ccccc3c2)C1 (single isomer, unassigned) [Compound 82]
0.000324 | CC(C)[C@H](NC(=O)c1ccc2ccccc2c1)C1=NOC(C(=O)N[C@@H](CC(=O)O)C(=O)COc2ccc3ccccc3c2)C1 (stereo partly drawn) [Compound 29, (3S)-3-{3-[(1S)-1-(Naphthalene-2-carbonylamino)-2-methyl-propyl]-4,5-dihydro-isoxazole-5-carbonylamino}-4-keto-5-(2-naphthyloxy)-pentanoic Acid]
26.9 | CC(C)[C@H](NC(=O)CCC(=O)O)C1=NOC(C)(C(=O)N[C@@H](CC(=O)O)C(=O)COc2ccc3ccccc3c2)C1 (single isomer, unassigned) [Compound 81]
0.0191 | CC(C)[C@H](NC(=O)c1ccc2ccccc2c1)C1=NOC(C(=O)N[C@@H](CC(=O)O)C(=O)COc2ccccc2)C1 (stereo partly drawn) [Compound 30, (3S)-3-{3-[2-Methyl-(1S)-1-(2-naphthalenecarbonylamino)-propyl]-4,5-dihydro-isoxazole-5-carbonylamino}-4-keto-5-phenoxy-pentanoic Acid]
0.969 | CCCC1(C(=O)N[C@@H](CC(=O)O)C(=O)COc2ccccc2)CC([C@@H](NC(=O)CCC(=O)O)C(C)C)=NO1 (mixture of isomers) [Compound 83, (3S)-3-{3-[2-Methyl-(1S)-1-(succinoylamino)-propyl]-5-propyl-4,5-dihydro-isoxazole-5-carbonylamino}-4-keto-5-phenoxy-pentanoic Acid]
0.00151 | CC(C)[C@H](NC(=O)c1cccc2ccccc12)C1=NOC(Cc2ccccc2)(C(=O)N[C@@H](CC(=O)O)C(=O)CN2CCCCC2)C1 (stereo partly drawn) [Compound 48, (3S)-3-{3-[2-Methyl-(1S)-1-(1-naphtalenycarbonylamino)-propyl]-5-phenylmethyl-4,5-dihydro-isoxazole-5-carbonylamino}-4-keto-5-(1-piperidinyl)-pentanoic Acid]
0.177 | CC(C)[C@H](NC(=O)CCC(=O)O)C1=NOC(C)(C(=O)N[C@@H](CC(=O)O)C(=O)COc2ccccc2)C1 (mixture of isomers) [Compound 47, (3S)-3-{3-[2-Methyl-(1S)-1-(succinoylamino)-propyl]-5-methyl-4,5-dihydro-isoxazole-5-carbonylamino}-4-keto-5-phenoxy-pentanoic Acid]
0.0291 | CC1(C(=O)N[C@@H](CC(=O)O)C(=O)COc2ccccc2)CC([C@H](CCC(=O)O)NC(=O)CCC(=O)O)=NO1 (mixture of isomers) [Compound 46, (3S)-3-{3-[(1S)-1-(Succinoylamino)-3-carboxy-propyl]-5-methyl-4,5-dihydro-isoxazole-5-carbonylamino}-4-keto-5-phenoxy-pentanoic Acid]

Compound | Ki [µM]
CC(C)[C@H](NC(=O)CCC(=O)O)C1=NOC(C)(C(=O)N[C@@H](CC(=O)O)C(=O)CN2CCCC2)C1 (stereo partly drawn) [Compound 78, (3S)-3-{3-[2-methyl-(1S)-1-(succinoylamino)-propyl]-5-methyl-4,5-dihydro-isoxazole-5-cabonylamino}-4-keto-5-(N-pyrrolidine)-pentanoic acid] | 63.9
